Measurements: patent publication US6737383B1, “Herbicidal oxadiazolidines” (priority 1999, dated 2004)

Experiments:
bedstraw = assay: Test B pre/postemergence bedstraw; format: in vivo, Galium aparine
How it was run: (§1)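 Response is a visual 0-to-10 score relative to untreated plants, where 0 means no effect and 10 means complete control, taken twelve to sixteen days after application. Treatments went onto soil at planting and onto foliage of 1- to 4-leaf plants, using a surfactant-containing non-phytotoxic solvent.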

blackgrass = assay: Test B pre/postemergence blackgrass; format: in vivo, Alopecurus myosuroides
How it was run: as §1

surinam grass = assay: Test B pre/postemergence surinam grass; format: in vivo, Brachiaria decumbens
How it was run: as §1

cocklebur = assay: Test B pre/postemergence cocklebur; format: in vivo, Xanthium strumarium
How it was run: as §1

corn = assay: Test B pre/postemergence corn; format: in vivo, Zea mays
How it was run: as §1

crabgrass = assay: Test B pre/postemergence crabgrass; format: in vivo, Digitaria sanguinalis
How it was run: as §1

giant foxtail = assay: Test B pre/postemergence giant foxtail; format: in vivo, Setaria faberii
How it was run: as §1

morningglory = assay: Test B pre/postemergence morningglory; format: in vivo, Ipomoea hederacea
How it was run: as §1

pigweed = assay: Test B pre/postemergence pigweed; format: in vivo, Amaranthus retroflexus
How it was run: as §1

rape = assay: Test B pre/postemergence rape; format: in vivo, Brassica napus
How it was run: as §1

soybean = assay: Test B pre/postemergence soybean; format: in vivo, Glycine max
How it was run: as §1

sugar beet = assay: Test B pre/postemergence sugar beet; format: in vivo, Beta vulgaris
How it was run: as §1

velvetleaf = assay: Test B pre/postemergence velvetleaf; format: in vivo, Abutilon theophrasti
How it was run: as §1

wheat = assay: Test B pre/postemergence wheat; format: in vivo, Triticum aestivum
How it was run: as §1

wild oat = assay: Test B pre/postemergence wild oat; format: in vivo, Avena fatua
How it was run: as §1

purple nutsedge = assay: Test B pre/postemergence purple nutsedge; format: in vivo, Cyperus rotundus
How it was run: as §1

rice = assay: Test B flood test rice; format: in vivo, Oryza sativa; conditions: Pre-emergence
How it was run: (§2)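 Each value is a visual injury score relative to controls, with 10 meaning complete control and 0 no effect. Evaluation took place twelve to sixteen days after the 2-leaf-stage plants were treated and kept in the greenhouse.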

smallflower flatsedge = assay: Test B flood test smallflower flatsedge; format: in vivo, Cyperus difformis; conditions: Pre-emergence
How it was run: as §2

duck salad = assay: Test B flood test duck salad; format: in vivo, Heteranthera limosa; conditions: Pre-emergence
How it was run: as §2

bamyardgrass = assay: Test B flood test barnyardgrass; format: in vivo, Echinochloa crus-galli; conditions: Pre-emergence
How it was run: as §2

[1] = Preemergence, Rate 62 g/ha, scale of 0 to 10 where 0 is no effect and 10 is complete control
[2] = Preemergence, Rate 250 g/ha, scale of 0 to 10 where 0 is no effect and 10 is complete control
[3] = Preemergence, Rate 500 g/ha, scale of 0 to 10 where 0 is no effect and 10 is complete control
[4] = Rate 62 g/ha, Postemergence, scale of 0 to 10 where 0 is no effect and 10 is complete control
[5] = Rate 125 g/ha, Postemergence, scale 0 to 10
[6] = Rate 125 g/ha, Preemergence, scale of 0 to 10 where 0 is no effect and 10 is complete control
[7] = Rate 500 g/ha, Postemergence, scale 0 to 10, 0 no effect, 10 complete control
[8] = Rate 1000 g/ha, scale 0 to 10 (0 no effect, 10 complete control)
[9] = Rate 125 g/ha, flood test species, scale 0 to 10 where 0 is no effect and 10 is complete control
[10] = Rate 250 g/ha, flood-test species, scale 0 to 10, 0 is no effect, 10 is complete control
[11] = Rate 500 g/ha, flood test species, scale 0 to 10 (0 no effect, 10 complete control)

SMILES: CCOC(=O)C(C)N(C(=O)n1oc(=O)n(CC)c1=O)c1ccc(F)cc1 (stereo not drawn) [Compound 248]
- Bedstraw plant response rating (bedstraw; [1]): 0
- Bedstraw plant response rating (bedstraw; [2]): 0
- Plant response rating, Bedstraw (bedstraw; [3]): 0
- Bedstraw plant response rating (bedstraw; [4]): 0
- Bedstraw plant response rating (bedstraw; [5]): 0
- Bedstraw plant response rating (bedstraw; [6]): 0
- Plant response rating (0 to 10; 0 is no effect, 10 is complete control), Bedstraw (bedstraw; Rate 250 g/ha, Postemergence): 0
- Bedstraw plant response rating (bedstraw; [7]): 0
- Blackgrass plant response rating (blackgrass; [1]): 0
- Blackgrass plant response rating (blackgrass; [2]): 0
- Plant response rating, Blackgrass (blackgrass; [3]): 0
- Blackgrass plant response rating (blackgrass; [4]): 0
- Blackgrass plant response rating (blackgrass; [5]): 0
- Blackgrass plant response rating (blackgrass; [6]): 0
- Plant response rating (0 to 10; 0 is no effect, 10 is complete control), Blackgrass (blackgrass; Rate 250 g/ha, Postemergence): 0
- Blackgrass plant response rating (blackgrass; [7]): 0
- B. signalgrass plant response rating (surinam grass; [1]): 0
- B. signalgrass plant response rating (surinam grass; [2]): 0
- Plant response rating, B. signalgrass (surinam grass; [3]): 0
- B. signalgrass plant response rating (surinam grass; [4]): 0
- B. signalgrass plant response rating (surinam grass; Rate 125 g/ha, Postemergence, scale 0 (no effect) to 10 (complete control)): 0
- B. signalgrass plant response rating (surinam grass; [6]): 0
- Plant response rating (0 to 10; 0 is no effect, 10 is complete control), B. signalgrass (surinam grass; Rate 250 g/ha, Postemergence): 0
- B. signalgrass plant response rating (surinam grass; [7]): 0
- Cocklebur plant response rating (cocklebur; [1]): 0
- Cocklebur plant response rating (cocklebur; [2]): 0
- Plant response rating, Cocklebur (cocklebur; [3]): 0
- Cocklebur plant response rating (cocklebur; [4]): 0
- Cocklebur plant response rating (cocklebur; [5]): 0
- Cocklebur plant response rating (cocklebur; [6]): 0
- Plant response rating (0 to 10; 0 is no effect, 10 is complete control), Cocklebur (cocklebur; Rate 250 g/ha, Postemergence): 0
- Cocklebur plant response rating (cocklebur; [7]): 0
- Corn plant response rating (corn; [1]): 0
- Corn plant response rating (corn; [2]): 0
- Plant response rating, Corn (corn; [3]): 0
- Corn plant response rating (corn; [4]): 0
- Corn plant response rating (corn; [5]): 0
- Corn plant response rating (corn; [6]): 0
- Plant response rating (0 to 10; 0 is no effect, 10 is complete control), Corn (corn; Rate 250 g/ha, Postemergence): 0
- Corn plant response rating (corn; [7]): 0
- Crabgrass plant response rating (crabgrass; [1]): 0
- Crabgrass plant response rating (crabgrass; [2]): 0
- Plant response rating, Crabgrass (crabgrass; [3]): 0
- Crabgrass plant response rating (crabgrass; [6]): 0
- Plant response rating (0 to 10; 0 is no effect, 10 is complete control), Crabgrass (crabgrass; Rate 250 g/ha, Postemergence): 0
- Crabgrass plant response rating (crabgrass; [7]): 0
- Giant foxtail plant response rating (giant foxtail; [1]): 0
- Giant foxtail plant response rating (giant foxtail; [2]): 0
- Plant response rating, Giant foxtail (giant foxtail; [3]): 0
- Giant foxtail plant response rating (giant foxtail; [6]): 0
- Plant response rating (0 to 10; 0 is no effect, 10 is complete control), Giant foxtail (giant foxtail; Rate 250 g/ha, Postemergence): 0
- Giant foxtail plant response rating (giant foxtail; [7]): 0
- Morningglory plant response rating (morningglory; [1]): 0
- Morningglory plant response rating (morningglory; [2]): 0
- Plant response rating, Morningglory (morningglory; [3]): 0
- Morningglory plant response rating (morningglory; [6]): 0
- Plant response rating (0 to 10; 0 is no effect, 10 is complete control), Morningglory (morningglory; Rate 250 g/ha, Postemergence): 0
- Morningglory plant response rating (morningglory; [7]): 0
- Redroot pigweed plant response rating (pigweed; [1]): 0
- Redroot pigweed plant response rating (pigweed; [2]): 0
- Plant response rating, Redroot pigweed (pigweed; [3]): 0
- Redroot pigweed plant response rating (pigweed; [6]): 0
- Plant response rating (0 to 10; 0 is no effect, 10 is complete control), Redroot pigweed (pigweed; Rate 250 g/ha, Postemergence): 0
- Redroot pigweed plant response rating (pigweed; [7]): 0
- Rape plant response rating (rape; [1]): 0
- Rape plant response rating (rape; [2]): 0
- Plant response rating, Rape (rape; [3]): 0
- Rape plant response rating (rape; [6]): 0
- Plant response rating (0 to 10; 0 is no effect, 10 is complete control), Rape (rape; Rate 250 g/ha, Postemergence): 0
- Rape plant response rating (rape; [7]): 0
- Soybean plant response rating (soybean; [1]): 0
- Soybean plant response rating (soybean; [2]): 0
- Plant response rating, Soybean (soybean; [3]): 0
- Soybean plant response rating (soybean; [6]): 0
- Soybean plant response rating (soybean; [7]): 1
- Sugarbeets plant response rating (sugar beet; [1]): 0
- Sugarbeets plant response rating (sugar beet; [2]): 0
- Plant response rating, Sugarbeets (sugar beet; [3]): 0
- Sugarbeets plant response rating (sugar beet; [6]): 0
- Sugarbeets plant response rating (sugar beet; [7]): 0
- Velvetleaf plant response rating (velvetleaf; [1]): 0
- Velvetleaf plant response rating (velvetleaf; [2]): 0
- Plant response rating, Velvetleaf (velvetleaf; [3]): 0
- Velvetleaf plant response rating (velvetleaf; [6]): 0
- Velvetleaf plant response rating (velvetleaf; [7]): 0
- Wheat plant response rating (wheat; [1]): 0
- Wheat plant response rating (wheat; [2]): 0
- Plant response rating, Wheat (wheat; [3]): 0
- Wheat plant response rating (wheat; [6]): 0
- Wheat plant response rating (wheat; [7]): 0
- Wild oats plant response rating (wild oat; [1]): 0
- Wild oats plant response rating (wild oat; [2]): 0
- Plant response rating, Wild oats (wild oat; [3]): 0
- Wild oats plant response rating (wild oat; [6]): 0
- Wild oats plant response rating (wild oat; [7]): 0
- Nutsedge plant response rating (purple nutsedge; [1]): 0
- Nutsedge plant response rating (purple nutsedge; [2]): 0
- Plant response rating, Nutsedge (purple nutsedge; [3]): 0
- Nutsedge plant response rating (purple nutsedge; [6]): 0
- Plant response rating (0 to 10; 0 is no effect, 10 is complete control), Nutsedge (purple nutsedge; Rate 250 g/ha, Postemergence): 0
- Nutsedge plant response rating (purple nutsedge; [7]): 0
- Rice plant response rating (rice; [8]): 0
- Rice plant response rating (rice; [9]): 0
- Rice plant response rating (rice; [10]): 0
- Rice plant response rating (rice; [11]): 0
- S. Flatsedge plant response rating (smallflower flatsedge; [8]): 0
- S. Flatsedge plant response rating (smallflower flatsedge; [9]): 0
- S. Flatsedge plant response rating (smallflower flatsedge; [10]): 0
- S. Flatsedge plant response rating (smallflower flatsedge; [11]): 0
- Ducksalad plant response rating (duck salad; [8]): 0
- Ducksalad plant response rating (duck salad; [9]): 0
- Ducksalad plant response rating (duck salad; [10]): 0
- Ducksalad plant response rating (duck salad; [11]): 0
- Barnyardgrass plant response rating (bamyardgrass; [8]): 0
- Barnyardgrass plant response rating (bamyardgrass; [9]): 0
- Barnyardgrass plant response rating (bamyardgrass; [10]): 0
- Barnyardgrass plant response rating (bamyardgrass; [11]): 0
